Values quoted from earlier work, collected in patent US20030211945A1, “Natural herbicide compositions” (priority 2002, published 2003).
Read-outs that look alike come from different tables or passages of the source.

Test system: selected weeds

In the case of `CC(=O)O` [acetic acid], the weed control (concentrations of acetic acid below about 5%) is listed as “variable results” and the weed control (high concentrations of acetic acid) is listed as “control selected weeds”.
